According to US4257941A, “Polycyclic nitrogen-containing compounds” (BASF Aktiengesellschaft, priority 1976, dated 1981):
Like-named read-outs stand apart in the source and are kept apart here.

Assays:
Festuca rubra = experiment: Growth height of individual grasses (Example 15); type: in vivo; conditions: for Growth height: 3 weeks after treatment; for growth height relative: control 100
Method: (§1) Under the same conditions as in Example 13 the two grasses Festuca rubra and Poa praetensis (both components of the lawn mixture used in Example 13) were grown in a neutral sandy loam. The growth height was measured 3 weeks after treatment with the active ingredients.

Poa praetensis = experiment: Growth height of individual grasses (Example 15); type: in vivo; design: key to plant color: ^+: plants a darker green; conditions: for Growth height: 3 weeks after treatment; for growth height relative: control 100
Method: as §1

sugar beet = experiment: Yield and sugar content of sugar beet (Example 20); type: in vivo, sugar beet (KAWpoly variety); conditions: for Sugar content of lower stems rel. / Sugar content rel. / Yield rel.: control 100
Method: Sugar beets of the KAWpoly variety were grown in a neutral sandy loam in large pots. Fertilization with 1.5 g N as ammonium nitrate and 1 g P2 O5 as secondary potassium phosphate took place at the time of sowing. At a plant height of 16 to 18 cm the leaves were treated twice, once with 0.5 kg/ha and once with 1 kg/ha; in each case, 4 pots formed a variation of the experiment.

Eleusine indica = experiment: Herbicidal action (Example 25); type: in vivo; conditions: postemergence
Method: (§2) Paraffined paper cups having a volume of 170 cm^3 were filled with a sandy loam, and the seeds of the test plants sown therein, separated by species. (The species are also listed below.)
(§3) In the first group, treatment was effected immediately after sowing and before germination of the seeds (preemergence treatment=soil treatment). Shallow sown seeds not completely covered with soil came into contact with the active ingredients. In the second group, the plants were treated postemergence (=leaf treatment) at a growth height of from 2 to 8 cm, depending on the rate of growth and shape of the species concerned. The compounds were suspended or emulsified in water and applied with the aid of fine nozzles. The soil and plants were thoroughly sprinkler irrigated for the duration of the experiment. The cups were placed in the greenhouse and kept in the temperature range 12°-25° C. or 18°-35° C., depending on the temperature requirements of the various species. After 2 to 6 weeks the action was assessed visually on a 0 to 100 scale, 0 denoting no damage and 100 denoting plants not germinated or completely destroyed.

Digitaria sanguinalis = experiment: Herbicidal action (Example 25); type: in vivo; conditions: postemergence
Method: as §2, §3

Datura stramonium = experiment: Herbicidal action (Example 25); type: in vivo; conditions: postemergence
Method: as §2, §3

Alopecurus myosuroides = experiment: Herbicidal action (Example 25); type: in vivo; conditions: Alopecurus myosuroides, read-out: percentage damage; for pest or weed control at 2000 g/ha: 2.0 kg/ha; for pest or weed control at 4000 g/ha: 4.0 kg/ha; for pest or weed control at 8000 g/ha: 8.0 kg/ha; for pest or weed control at 1000 g/ha: 1.0 kg/ha
Method: as §2, §3

tomatoes = experiment: Action on tomatoes (Example 22); type: in vivo; conditions: leaf; for Plant height: 14 days; for Plant height relative: control 100
Method: Tomatoes were grown in the greenhouse in glass dishes 11.5 cm in diameter containing a peat substrate which was provided with an adequate supply of nutrients. The active ingredients were sprayed onto the leaves in conventional manner at a plant height of 9 to 12 cm.

Galium aparine = experiment: Herbicidal action (Example 25); type: in vivo; conditions: post-emergence, postemergence, 4.0 kg/ha, read-out: percentage damage
Method: as §2, §3

Sinapis alba = experiment: Herbicidal action (Example 25); type: in vivo; conditions: read-out: percentage damage; for pest or weed control at 1000 g/ha: 1.0 kg/ha; for pest or weed control at 2000 g/ha: 2.0 kg/ha
Method: as §2, §3

Echinochloa crus galli = experiment: Herbicidal action (Example 25); type: in vivo
Method: as §2, §3

Brc1ccc(N2N=NC3C4CC(C5N=NC45)C32)cc1 (stereo not drawn) [drawing 386]
Growth height (Festuca rubra; 0.5 kg/ha): 29.5 cm | growth height relative (Festuca rubra; 0.5 kg/ha): 107.3 | Growth height (Festuca rubra; 1.0 kg/ha): 27.5 cm | growth height relative (Festuca rubra; 1.0 kg/ha): 100.0 | Growth height (Festuca rubra; 2.0 kg/ha): 25.5 cm | growth height relative (Festuca rubra; 2.0 kg/ha): 92.7 | Growth height (Poa praetensis; 0.5 kg/ha): 19.0 cm | growth height relative (Poa praetensis; 0.5 kg/ha): 84.4 | plant color (Poa praetensis; 1.0 kg/ha): ^+ | Growth height (Poa praetensis; 1.0 kg/ha): 17.5 cm | growth height relative (Poa praetensis; 1.0 kg/ha): 77.8 | plant color (Poa praetensis; 2.0 kg/ha): ^+ | Growth height (Poa praetensis; 2.0 kg/ha): 14.0 cm | growth height relative (Poa praetensis; 2.0 kg/ha): 62.2

Brc1ccc(N2N=NC3C4CC(C5N=NC45)C32)cc1 (stereo not drawn) [drawing 400]
Sugar content (sugar beet; 0.5 kg/ha): 51.0 % in dry substance | Sugar content of lower stems (sugar beet; 0.5 kg/ha): 22.9 % in dry substance | Yield (sugar beet; 0.5 kg/ha): 13.04 g dry substance/vessel | Sugar content of lower stems rel. (sugar beet; 0.5 kg/ha): 100.9 | Sugar content rel. (sugar beet; 0.5 kg/ha): 101.4 | Yield rel. (sugar beet; 0.5 kg/ha): 107.4 | Sugar content (sugar beet; 1.0 kg/ha): 52.2 % in dry substance | Sugar content of lower stems (sugar beet; 1.0 kg/ha): 25.8 % in dry substance | Yield (sugar beet; 1.0 kg/ha): 14.39 g dry substance/vessel | Sugar content of lower stems rel. (sugar beet; 1.0 kg/ha): 113.6 | Sugar content rel. (sugar beet; 1.0 kg/ha): 103.8 | Yield rel. (sugar beet; 1.0 kg/ha): 118.5

Clc1ccc(N2N=NC3C4CC(C5N=NC45)C32)cc1 (stereo not drawn) [drawing 385]
Growth height (Festuca rubra; 0.5 kg/ha): 27.0 cm | growth height relative (Festuca rubra; 0.5 kg/ha): 98.2 | Growth height (Festuca rubra; 1.0 kg/ha): 25.5 cm | growth height relative (Festuca rubra; 1.0 kg/ha): 92.7 | Growth height (Festuca rubra; 2.0 kg/ha): 23.5 cm | growth height relative (Festuca rubra; 2.0 kg/ha): 85.5 | Growth height (Poa praetensis; 0.5 kg/ha): 20.0 cm | growth height relative (Poa praetensis; 0.5 kg/ha): 88.9 | plant color (Poa praetensis; 1.0 kg/ha): ^+ | Growth height (Poa praetensis; 1.0 kg/ha): 20.0 cm | growth height relative (Poa praetensis; 1.0 kg/ha): 88.9 | plant color (Poa praetensis; 2.0 kg/ha): ^+ | Growth height (Poa praetensis; 2.0 kg/ha): 15.5 cm | growth height relative (Poa praetensis; 2.0 kg/ha): 68.9

CC(C)OC(=O)Nc1cccc(Cl)c1 [drawing 423]
percentage damage (Eleusine indica; 2.0 kg/ha): 50 percentage damage | percentage damage (Eleusine indica; 4.0 kg/ha): 50 percentage damage | percentage damage (Eleusine indica; 8.0 kg/ha): 50 percentage damage | percentage damage (Digitaria sanguinalis; 2.0 kg/ha): 80 percentage damage | percentage damage (Digitaria sanguinalis; 4.0 kg/ha): 80 percentage damage | percentage damage (Digitaria sanguinalis; 8.0 kg/ha): 90 percentage damage | percentage damage (Datura stramonium; 2.0 kg/ha): 30 percentage damage | percentage damage (Datura stramonium; 4.0 kg/ha): 40 percentage damage | percentage damage (Datura stramonium; 8.0 kg/ha): 60 percentage damage | pest or weed control at 2000 g/ha (Alopecurus myosuroides; post-emergence, postemergence): 25% | pest or weed control at 4000 g/ha (Alopecurus myosuroides; post-emergence, postemergence): 25% | pest or weed control at 8000 g/ha (Alopecurus myosuroides; post-emergence, postemergence): 30% | pest or weed control at 2000 g/ha (Alopecurus myosuroides; pre-emergence, preemergence): 95% | pest or weed control at 4000 g/ha (Alopecurus myosuroides; pre-emergence, preemergence): 95% | pest or weed control at 8000 g/ha (Alopecurus myosuroides; pre-emergence, preemergence): 98%

Brc1ccc(N2N=NC3C4CC(C5N=NC45)C32)cc1 (stereo not drawn) [drawing 403]
Plant height (tomatoes; 1.5 kg/ha): 25.0 cm | Plant height relative (tomatoes; 1.5 kg/ha): 91.9 | Plant height (tomatoes; 3.0 kg/ha): 22.7 cm | Plant height relative (tomatoes; 3.0 kg/ha): 83.5 | Plant height (tomatoes; 6.0 kg/ha): 15.3 cm | Plant height relative (tomatoes; 6.0 kg/ha): 56.2

COc1ccc(NC(=O)N(C)C)cc1Cl
pest or weed control at 4000 g/ha (Galium aparine): 50% | pest or weed control at 1000 g/ha (Sinapis alba; post-emergence, postemergence): 100% | pest or weed control at 2000 g/ha (Sinapis alba; post-emergence, postemergence): 100% | pest or weed control at 1000 g/ha (Sinapis alba; pre-emergence, preemergence): 90% | pest or weed control at 2000 g/ha (Sinapis alba; pre-emergence, preemergence): 90% | pest or weed control at 1000 g/ha (Alopecurus myosuroides; post-emergence, postemergence): 70% | pest or weed control at 2000 g/ha (Alopecurus myosuroides; post-emergence, postemergence): 70% | pest or weed control at 1000 g/ha (Alopecurus myosuroides; pre-emergence, preemergence): 0% | pest or weed control at 2000 g/ha (Alopecurus myosuroides; pre-emergence, preemergence): 0% | percentage damage (Echinochloa crus galli; postemergence, 1.0 kg/ha): 100 percentage damage | percentage damage (Echinochloa crus galli; postemergence, 2.0 kg/ha): 100 percentage damage | percentage damage (Echinochloa crus galli; preemergence, 1.0 kg/ha): 80 percentage damage | percentage damage (Echinochloa crus galli; preemergence, 2.0 kg/ha): 90 percentage damage

O=C(Nc1ccc(Cl)c(Cl)c1)C1CC1
pest or weed control at 4000 g/ha (Galium aparine): 0% | pest or weed control at 1000 g/ha (Sinapis alba; post-emergence, postemergence): 100% | pest or weed control at 2000 g/ha (Sinapis alba; post-emergence, postemergence): 100% | pest or weed control at 1000 g/ha (Sinapis alba; pre-emergence, preemergence): 60% | pest or weed control at 2000 g/ha (Sinapis alba; pre-emergence, preemergence): 60% | pest or weed control at 1000 g/ha (Alopecurus myosuroides; post-emergence, postemergence): 80% | pest or weed control at 2000 g/ha (Alopecurus myosuroides; post-emergence, postemergence): 30% | pest or weed control at 1000 g/ha (Alopecurus myosuroides; pre-emergence, preemergence): 0% | pest or weed control at 2000 g/ha (Alopecurus myosuroides; pre-emergence, preemergence): 0% | percentage damage (Echinochloa crus galli; postemergence, 1.0 kg/ha): 100 percentage damage | percentage damage (Echinochloa crus galli; postemergence, 2.0 kg/ha): 100 percentage damage | percentage damage (Echinochloa crus galli; preemergence, 1.0 kg/ha): 80 percentage damage | percentage damage (Echinochloa crus galli; preemergence, 2.0 kg/ha): 90 percentage damage
